Measured values from article PMC11249646, “Small-Molecule Disruptors of the Interaction between Calcium- and Integrin-Binding Protein 1 and Integrin αIIbβ3 as Novel Antiplatelet Agents” (ACS Pharmacology & Translational Science, 2024).
Read-outs that look alike come from different tables or passages of the source.

Columns and labels:
[1] = target: T1, CIB1 and αIIb interaction (GST-CIB1 : F-αIIb peptide) (Homo sapiens, UniProt Q99828); test: FP assay, 384-well format (screen); format: binding; design: 384-well SCREEN Efficacy (%): concentration or dose not given beside the values; conditions: for IC50: read-out: 384-well SCREEN IC50
T1 construct: made in house; host or cells: BL-21 plus RIL cells (E. coli)
T1 sequence (Q99828 1-191): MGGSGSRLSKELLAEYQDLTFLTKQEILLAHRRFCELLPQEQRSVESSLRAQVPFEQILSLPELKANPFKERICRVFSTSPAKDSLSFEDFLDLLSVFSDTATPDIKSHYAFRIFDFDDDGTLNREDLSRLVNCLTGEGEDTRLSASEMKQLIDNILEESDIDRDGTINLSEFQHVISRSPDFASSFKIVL

[2] = target: T2, GST-CIB1 : F-scrambled peptide (Homo sapiens, UniProt Q99828); test: FP scrambled-peptide counter screen, 384-well format; format: binding; conditions: for IC50: read-out: 384-well COUNTERSCREEN IC50
T2 construct: made in house; host or cells: BL-21 plus RIL cells (E. coli)
T2 sequence (Q99828 1-191): T1 sequence (Q99828 1-191)

[3] = target: T3, CIB1 and αIIb interaction (CIB1-GST : F-αIIb peptide) (Homo sapiens, UniProt Q99828); test: FP assay, 1536-well qHTS format (primary and confirmatory screen); format: binding
T3 construct: made in house; host or cells: BL-21 plus RIL cells (E. coli)
T3 sequence (Q99828 1-191): T1 sequence (Q99828 1-191)

[4] = target: T2, GST-CIB1 : F-scrambled peptide; test: FP scrambled-peptide counter screen, 1536-well format; format: binding; conditions: for IC50: read-out: COUNTERSCREEN IC50
[5] = target: T4, GST-CIB1:F-αIIb interaction (Homo sapiens, UniProt Q99828); test: Gel-based (in-gel) binding assay
T4 construct: made in house; host or cells: BL-21 plus RIL cells (E. coli)
T4 sequence (Q99828 1-191): T1 sequence (Q99828 1-191)

[6] = target: T5, GST-CIB1 : F-αIIb peptide (Homo sapiens, UniProt Q99828); test: FP assay in the presence of glutathione (GSH), thiol reactivity; format: binding; conditions: for GSH Assay Result: thiol reactivity call: No change / Active; for shift in potency in the presence of GSH: with vs without 10 μM reduced GSH; for GSH/CIB1 IC50 ratio: ratio of GSH (+) IC50 to GSH (-) IC50
T5 construct: made in house; host or cells: BL-21 plus RIL cells (E. coli)
T5 sequence (Q99828 1-191): T1 sequence (Q99828 1-191)

[7] = F-scrambled peptide, *: Curve in opposite direction
[8] = confirmatory screen, YES/NO call
[9] = confirmatory screen, qHTS curve class, negative sign = inhibitory curve
[10] = confirmatory screen, negative = inhibition
[11] = confirmatory screen, read-out: CONFIRMATORY SCREEN IC50
[12] = qHTS FP screen hits, Table S2, negative = inhibition
[13] = qHTS FP screen hits, Table S2, one class per curve where COUNT > 1, negative sign = inhibitory curve
[14] = scrambled-peptide counterscreen
[15] = scrambled-peptide counterscreen, YES/NO call
[16] = 1 μM GST-CIB1, 400 nM F-αIIb, 60 μM, 1:2, 4-points
[17] = 1 μM GST-CIB1, 400 nM F-αIIb, concentrations tested 60, 30, 15, 7.5
[18] = FP assay in the presence of glutathione (GSH +), read-out: GSH (+) Assay IC50
[19] = FP assay without glutathione (GSH -), read-out: GSH (-) Assay IC50
[20] = qHTS primary screen hits, Table S2, negative = inhibition
[21] = qHTS primary screen hits, Table S2, negative sign = inhibitory curve, several classes where COUNT > 1
[22] = qHTS primary screen hits, Table S2, read-out: IC50
[23] = scrambled-peptide counterscreen, qHTS curve class
[24] = qHTS FP screen hits, Table S2, read-out: IC50

Row | Compound | 384-well SCREEN Efficacy (%) ([1]; F-αIIb peptide) | 384-well SCREEN Confirm? ([1]; F-αIIb peptide, YES/NO) | IC50 ([1]; F-αIIb peptide) [µM] | 384-well COUNTERSCREEN Efficacy (%) ([2]; F-scrambled peptide) | 384-well COUNTERSCREEN Confirm? [2, 7] | IC50 ([2]; F-scrambled peptide) [µM] | CONFIRMATORY SCREEN Confirm? [3, 8] | CONFIRMATORY SCREEN Curve Class [3, 9] | CONFIRMATORY SCREEN Efficacy (%) [3, 10] [%] | IC50 [3, 11] [µM] | Efficacy (%) [3, 12] [%] | Curve Class [3, 13] | COUNTERSCREEN Efficacy (%) [4, 14] [%] | COUNTERSCREEN Confirm? [4, 15] | IC50 [4, 14] [µM] | Active in Gel Assay? [5, 16] | IC50 [6, 18] [µM] | IC50 [6, 19] [µM] | COUNTERSCREEN Curve Class [4, 23] | GSH/CIB1 IC50 ratio [6] | also measured
1 | O=C1C(I)=CC(=C(c2cc(I)c([O-])c(I)c2)c2ccccc2C(=O)[O-])C=C1I.[Na+].[Na+] [NCGC00161636-02] | 78 | YES | 31.6 | 105 | YES | 14.1 | YES | -1.2 | -74 | 11.2 | -47 | -1.2 | 435 | YES | 89.1 | YES | 28.2 | 15.9 | – | – | IC50 ([3]; IC50 [μM], qHTS FP screen hits, Table S2): 17.8 µM; Inhibited concentration in gel [5, 17]: 60 µM; GSH Assay Result [6]: No change
2 | S=C(SSC(=S)N1CCCCC1)N1CCCCC1 [NCGC00181776-02, dipentamethylenethiuram disulfide] | 80 | YES | 6.3 | 38 | YES | > 120 | YES | -1.4 | -72 | 25.1 | – | – | 0 | YES | – | YES | – | – | 4 | – | Efficacy (%) [3, 20]: -64%; Curve Class [3, 21]: -1.2; IC50 [3, 22]: 28.2 µM; Inhibited concentration in gel (µM) [5, 17]: 60,30 µM; shift in potency in the presence of GSH [6]: right-shift in potency
3 | CC(C)(C)c1ccc(SC2=NS(=O)(=O)c3ccccc32)cc1 [NCGC00189495-01] | 35 | YES | 8.9 | 25 | YES | > 120 | YES | -2.4 | -62 | 31.6 | -38 | -2.2 | 0 | YES | – | YES | > 120 | 6.2 | 4 | 28.3 | IC50 [3, 24]: 39.8 µM; Inhibited concentration in gel (µM) [5, 17]: 60,30 µM; shift in potency in the presence of GSH [6]: right-shift in potency
4 | O=c1[nH]sc2cc(Cl)ccc12 [NCGC00262908-01, ticlatone, reference compound] | 79 | YES | 0.562 | 95 | YES | > 120 | YES | -1.2 | -50 | 2.8 | – | – | 10 | YES | – | YES | 10.3 | 0.234 | 4 | 44.0 | Efficacy (%) [3, 20]: -68%; Curve Class ([3]; qHTS primary screen hits, Table S2, negative sign = inhibitory curve): -1.2; IC50 [3, 22]: 3.5 µM; shift in potency in the presence of GSH [6]: right-shift in potency
5 | COc1cccc(-n2c(SCc3cc(=O)oc4cc(O)c(O)cc34)nc3ccccc3c2=O)c1.O=C(O)C(F)(F)F [NCGC00371345-01] | 73 | YES | 11.2 | 38 | Inconclusive | 7.1 | – | -1.1 | – | 14.1 | – | – | – | – | 8.9 | YES | 15.9 | 20 | -2.4 | 0.8 | Confirm and Selective? ([1]; selective toward αIIb: negative curve class and/or IC50 ratio of >3-fold and/or >2-fold efficacy vs scrambled peptide): Inconclusive; CONFIRMATORY SCREEN Efficacy (%) [3]: -90%; Efficacy (%) [3, 20]: -34%; Curve Class [3, 21]: -1.4; IC50 [3, 22]: 4.5 µM; COUNTERSCREEN Efficacy (%) [4]: -35%; GSH Assay Result [6]: No change
6 | CC(C)=CCC[C@]1(C)C=Cc2c(O)c3c(c(CC=C(C)C)c2O1)O[C@]12C(=C[C@@H]4CC1C(C)(C)O[C@@]2(C/C=C(/C)C(=O)O)C4=O)C3=O [NCGC00485239-01] | 60 | YES | 3.6 | 40 | YES | > 120 | YES | -1.2 | -54 | 8.9 | -34 | -1.2 | 32 | YES | 12.6 | YES | 2.4 | 2 | 1.4 | 1.2 | IC50 [3, 24]: 11.2 µM; Inhibited concentration in gel (µM) [5, 17]: 60,30 µM; GSH Assay Result [6]: No change
7 | thimerosal [NCGC00178879-04, reference compound] | – | – | – | – | – | – | – | – | – | – | – | – | – | – | – | – | – | – | – | – | 384-well SCREEN Confirm? [1]: YES; 384-well SCREEN Efficacy (%) [1]: 77%; IC50 [1]: 2.8 µM; 384-well COUNTERSCREEN Confirm? [2]: YES; 384-well COUNTERSCREEN Efficacy (%) [2]: 45%; IC50 [2]: 7.1 µM; CONFIRMATORY SCREEN Confirm? [3]: YES; CONFIRMATORY SCREEN Curve Class [3]: -1.2; CONFIRMATORY SCREEN Efficacy (%) [3]: -53%; Curve Class [3]: -1.2; Efficacy (%) [3]: -74%; IC50 ([3]; read-out: CONFIRMATORY SCREEN IC50): 17.8 µM; IC50 ([3]; read-out: IC50): 22.4 µM; COUNTERSCREEN Confirm? [4]: YES; COUNTERSCREEN Curve Class [4]: 3; COUNTERSCREEN Efficacy (%) [4]: 150%; Active in Gel Assay? [5]: YES; IC50 ([6]; read-out: GSH (+) Assay IC50): 35.6 µM; IC50 ([6]; read-out: GSH (-) Assay IC50): 0.316 µM
